Values joined by “and” are separate entries in the source; they are usually repeats but may differ in a detail not shown here. Identical values can stand only once. Like-named read-outs stand apart in the source and are kept apart here.
Assays:
[1] = system: RNA polymerase II Serine 5 phosphorylation in A549 cells overexpressing CDK7 mutant (C312S); assay: Imaging-based cellular RNA PolII Ser5 phosphorylation assay in A549 cells overexpressing CDK7-mutant (C312S); assay type: cell-based, human; conditions: for IC50: Homo sapiens, A549, A549 cells overexpressing CDK7 mutant (C312S), read-out: CDK7_ A549 mutant hCDK7(pIC50) (converted); for CDK7_ A549 mutant hCDK7(pIC50): A549 cells overexpressing CDK7 mutant (C312S)
Protocol: Data were calculated and analyzed in Phaedra.
From this an IC50 value can be obtained.
In parallel this assay was performed in A549 cells overexpressing CDK7-mutant (C312S) to evaluate the effect of the covalent bond on potency and to screen for potential off-target effects. Mutation of Cysteine to Serine (C312S), a less nucleophilic amino acid, prevents CDK7 inhibitors from covalently binding to CDK7 and from inhibiting CDK7 activity in an irreversible manner. A stably transduced A549 cell pool was generated that overexpresses CDK7 mutant (C312S), but also expresses endogenous CDK7-WT. Covalent binders targeting the cysteine at position 312 will show a shift in potency in A549 cells overexpressing mutant C312S CDK7.

[2] = system: RNA polymerase II Serine 5 phosphorylation (CDK7) in A549 cells
Description: To evaluate inhibition of CDK7 kinase activity, a 384-well automated imaging assay was used. This assay detects Serine 5 phosphorylation on a unique heptapeptide sequence in the C-terminal domain of Rpb1 subunit of RNA polymerase II, the downstream substrate of CDK7. This heptapeptide sequence is repeated up to 52 times in the CTD of Rpb1.
RNA Polymerase II Serine 5 phosphorylation was detected using a specific rabbit Phospho-Rpb1 CTD (Ser5) antibody. A549 adenocarcinoma human alveolar basal epithelial cells were seeded in 20 μl medium (DMEM supplemented with 1% Fetal Bovine Serum (heat inactivated 30′ 56° C.), 2 mM L-glutamine, 50 U/ml penicillin 50 μg/ml streptomycin, 1 mM sodium pyruvate and 50 mM hepes) at 1000 cells/well and cultured in poly-D-lysine coated μclear 384 black plates for 20 hours at 37° C. and 5% CO2.
After incubation cells were challenged with compound for 3 hours at 37° C. and 5% CO2. DMSO was used as high control and as low control 10 μM of the following reference compound was used:
40 nl of test compounds and controls were spotted in cell plates using Echo Liquid Handler (Echo 550, Labcyte). Incubation was followed by 20 minutes fixation with 20 μl 10% formaldehyde at room temperature. Medium/formaldehyde solution was removed, plates were washed 3 times with 30 μl D-PBS (w/o Ca^2+ and Ma^2+) and permeabilization was done by adding 20 μl ice cold methanol for 20 minutes. Cells were washed again 3 times with 30 μl D-PBS and 20 μl blocking buffer (25 ml fetal bovine serum in 500 ml D-PBS) was added for 1 hour.
After removing blocking buffer 20 μl 1/1000 primary antibody rabbit Phospho-Rpb1 CTD (Ser5) antibody was added which binds to the phosphorylated Serine5 of the heptapeptide sequences in the CTD of Rpb1. […] Last, plates were washed 2 times with 30 μl D-PBS and wells were filled with 40 μL D-PBS, plates were sealed (Thermowell sealing tape) and stored at 4° C. until reading. Plates were read with Opera Phenix (Perkin Elmer) with 10× air objective. Data were calculated and analyzed in Phaedra.
IC50 values were calculated using the following formula
Average value of all HC's and all LC's are used for normalizations.
% Effect=100−(sample-LC)/(HC-LC)×100
% Control=(sample/HC)×100
From this an IC50 value can be obtained. An estimate of the slope of the plot in terms of the Hill coefficient is also obtained.

[3] = target: CDK7/cyclinH/MAT1 trimeric complex (Homo sapiens (Human), UniProt P50613); assay: In vitro CDK7 assay, potency of irreversible covalent inhibitors (kinact/KI); conditions: for Ki: CDK7 (20 nM enz.) (KI, μM); for CDK7 (20 nM enz.) (kinact, s^−1) / CDK7 (20 nM enz.) (kinact/ KI, M^−1*s^−1) / Ki: 20 nM enz.; for kinact: read-out: CDK7 (20 nM enz.) (kinact, s^−1), 20 nM enz.
Chain of CDK7/cyclinH/MAT1 trimeric complex (P50613 whole entry): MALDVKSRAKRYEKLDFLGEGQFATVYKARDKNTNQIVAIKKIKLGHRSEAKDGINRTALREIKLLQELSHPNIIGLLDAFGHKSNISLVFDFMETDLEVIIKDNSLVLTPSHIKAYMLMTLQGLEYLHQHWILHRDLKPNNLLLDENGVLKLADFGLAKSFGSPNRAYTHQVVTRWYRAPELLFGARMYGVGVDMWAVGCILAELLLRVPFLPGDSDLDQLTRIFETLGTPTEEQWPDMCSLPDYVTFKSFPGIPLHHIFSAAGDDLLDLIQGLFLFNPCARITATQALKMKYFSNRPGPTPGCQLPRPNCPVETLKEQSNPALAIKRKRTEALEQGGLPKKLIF
Chain of CDK7/cyclinH/MAT1 trimeric complex (P51946 whole entry partner): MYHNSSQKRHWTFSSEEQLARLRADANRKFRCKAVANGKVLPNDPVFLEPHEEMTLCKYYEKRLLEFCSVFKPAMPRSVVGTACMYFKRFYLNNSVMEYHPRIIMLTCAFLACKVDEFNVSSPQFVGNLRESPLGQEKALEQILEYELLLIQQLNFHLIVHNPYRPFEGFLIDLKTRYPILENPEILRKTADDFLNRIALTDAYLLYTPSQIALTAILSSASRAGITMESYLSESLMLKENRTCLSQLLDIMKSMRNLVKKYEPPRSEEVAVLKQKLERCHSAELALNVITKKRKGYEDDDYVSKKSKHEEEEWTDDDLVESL
Chain of CDK7/cyclinH/MAT1 trimeric complex (P51948 whole entry partner): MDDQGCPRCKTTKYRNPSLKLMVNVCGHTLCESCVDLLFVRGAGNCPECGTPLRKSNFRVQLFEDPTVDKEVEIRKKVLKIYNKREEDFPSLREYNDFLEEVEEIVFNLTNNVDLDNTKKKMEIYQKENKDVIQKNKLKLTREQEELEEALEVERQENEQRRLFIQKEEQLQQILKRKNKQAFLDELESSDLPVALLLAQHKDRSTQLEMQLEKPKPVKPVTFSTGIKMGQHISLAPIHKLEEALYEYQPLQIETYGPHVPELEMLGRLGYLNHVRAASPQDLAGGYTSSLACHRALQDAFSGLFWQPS

Row | Compound | IC50 [1] [nM] | IC50 [2] [nM] | also measured
1 | CC#CC(=O)N1CC(N2C3CCC2CC(c2cc(C)c4c(c2)Nc2ncnc(N5CCS(=O)(=O)CC5)c2[C@@H](C)O4)C3)C1 (mixture of isomers) [compound 182] | 6030 | ~72.4 | –
2 | CC#CC(=O)N1CC(N2C3CCC2CC(c2cc(C)c4c(c2)Nc2ncnc(N5CCS(=O)(=O)CC5)c2[C@@H](C)O4)C3)C1 (mixture of isomers) [compound 183] | – | 347 | CDK7_ A549 mutant hCDK7(pIC50) [1]: <5
3 | CC#CC(=O)N1CC(N2CC(c3cc(C)c4c(c3)Nc3ncnc(N5CCS(=O)(=O)CC5)c3[C@@H](C)O4)C2)C(C)(C)C1 (mixture of isomers) [compound 184] | > 10000 | 186 | –
4 | C=CC(=O)N1CC[C@@H](N2CC(c3cc4c(c(C5CC5)c3)O[C@@H](C)c3c(ncnc3N3CCS(=O)(=O)CC3)N4)C2)C1 (single isomer, unassigned) [compound 98] | > 10000 | 347 | –
5 | C=CC(=O)N1CC[C@H](N2CC(c3cc4c(c(C5CC5)c3)O[C@@H](C)c3c(ncnc3N3CCS(=O)(=O)CC3)N4)C2)C1 (single isomer, unassigned) [compound 99] | > 10000 | ~794 | –
6 | C=CC(=O)N1CC(N2CC(c3cc(C)c4c(c3)Nc3ncnc(-c5cnn(C)c5)c3[C@H](C)O4)C2)C1 (single isomer, unassigned) [compound 108] | > 10000 | > 10000 | –
7 | C=CC(=O)N1CC[C@H](N2CCC(c3cc(C)c4c(c3)Nc3ncnc(N5CCS(=O)(=O)CC5)c3CO4)CC2)C1 (single isomer, unassigned) [compound 115] | > 10000 | – | CDK7_ A549 mutant hCDK7(pIC50) [1]: <5; CDK7 (20 nM enz.) (kinact, s^−1) [3]: 5.98e-05 s⁻¹; CDK7 (20 nM enz.) (kinact/ KI, M^−1*s^−1) [3]: 1377.97 M⁻¹ s⁻¹; Ki [3]: 0.0595 µM and 0.0434 µM; kinact [3]: 7.64e-05 s⁻¹; kinact/KI ([3]; read-out: CDK7 (20 nM enz.) (kinact/ KI, M^−1*s^−1), 20 nM enz.): 1280 M⁻¹ s⁻¹
8 | C=CC(=O)N1CC[C@H](N2CC(c3cc(C)c4c(c3)Nc3ncnc(N5CCS(=O)(=O)CC5)c3[C@@H](C)O4)C2)C1 (single isomer, unassigned) [compound 117] | > 10000 | – | CDK7_ A549 mutant hCDK7(pIC50) [1]: <5; CDK7 (20 nM enz.) (kinact, s^−1) [3]: 8.4e-05 s⁻¹ and 4.63e-05 s⁻¹; CDK7 (20 nM enz.) (kinact/ KI, M^−1*s^−1) [3]: 1546.72 M⁻¹ s⁻¹ and 2895.79 M⁻¹ s⁻¹ and 2153.89 M⁻¹ s⁻¹; Ki [3]: 0.034 µM and 0.029 µM and 0.0215 µM; kinact [3]: 5.26e-05 s⁻¹; kinact/KI ([3]; read-out: CDK7 (20 nM enz.) (kobs/[I], M^−1*s^−1), 20 nM enz.): 800 M⁻¹ s⁻¹
9 | C=CC(=O)N1CC[C@@H](N2CC(c3cc(C)c4c(c3)Nc3ncnc(N5CCS(=O)(=O)CC5)c3[C@@H](C)O4)C2)C1 (single isomer, unassigned) [compound 119] | > 10000 | – | CDK7_ A549 mutant hCDK7(pIC50) [1]: 4.95; CDK7 (20 nM enz.) (kinact, s^−1) [3]: 6.1e-05 s⁻¹ and 4.27e-05 s⁻¹; CDK7 (20 nM enz.) (kinact/ KI, M^−1*s^−1) [3]: 1923.49 M⁻¹ s⁻¹ and 1433.61 M⁻¹ s⁻¹ and 1881.64 M⁻¹ s⁻¹; Ki [3]: 0.0249 µM and 0.0426 µM and 0.0227 µM; kinact [3]: 4.79e-05 s⁻¹
10 | CC#CC(=O)N1CC[C@H](N2CC(c3cc(C)c4c(c3)Nc3ncnc(N5CCS(=O)(=O)CC5)c3[C@H](C)O4)C2)C1 (single isomer, unassigned) [compound 129] | > 10000 | – | CDK7_ A549 mutant hCDK7(pIC50) [1]: <5
11 | CC#CC(=O)N1CC[C@@H](N2CC(c3cc(C)c4c(c3)Nc3ncnc(N5CCS(=O)(=O)CC5)c3[C@H](C)O4)C2)C1 (single isomer, unassigned) [compound 131] | > 10000 | – | CDK7_ A549 mutant hCDK7(pIC50) [1]: <5
12 | CC#CC(=O)N1CC[C@H](N2CCC(c3cc(C)c4c(c3)Nc3ncnc(N5CCS(=O)(=O)CC5)c3CO4)CC2)C1 (single isomer, unassigned) [compound 134] | > 10000 | 83.2 | –
13 | CC#CC(=O)N1CC[C@@H](N2CCC(c3cc(C)c4c(c3)Nc3ncnc(N5CCS(=O)(=O)CC5)c3CO4)CC2)C1 (single isomer, unassigned) [compound 135] | > 10000 | ~50.1 | –
14 | CC#CC(=O)N1CC(N2CCC(c3cc4c(c(C)n3)O[C@H](C)c3c(ncnc3N3CCS(=O)(=O)CC3)N4)CC2)C1 (single isomer, unassigned) [compound 139] | > 10000 | – | CDK7 (20 nM enz.) (kinact, s^−1) [3]: 6.2e-05 s⁻¹; Ki [3]: 0.135 µM and 0.0466 µM; kinact [3]: 5.63e-05 s⁻¹
15 | CC#CC(=O)N1CC[C@@](C)(N2CCC(c3cc(C)c4c(c3)Nc3ncnc(N5CCS(=O)(=O)CC5)c3[C@@H](C)O4)CC2)C1 (single isomer, unassigned) [compound 145] | 4570 | ~14.5 | –
16 | CC#CC(=O)N1CC[C@](C)(N2CCC(c3cc(C)c4c(c3)Nc3ncnc(N5CCS(=O)(=O)CC5)c3[C@@H](C)O4)CC2)C1 (single isomer, unassigned) [compound 146] | 4370 | < 2.45 | –
17 | [2H][C@]1(N2CC(c3cc(C)c4c(c3)Nc3ncnc(N5CCS(=O)(=O)CC5)c3[C@@H](C)O4)C2)CCN(C(=O)C#CC)C1 (single isomer, unassigned) [compound 159] | > 10000 | 178 | –
18 | [2H]C([2H])([2H])C#CC(=O)N1CC[C@@H](N2CC(c3cc(C)c4c(c3)Nc3ncnc(N5CCS(=O)(=O)CC5)c3[C@@H](C)O4)C2)C1 (single isomer, unassigned) [compound 165] | > 10000 | 105 | –

Row | Compound | IC50 [1] [nM] | IC50 [2] [nM] | also measured
19 | [2H]C([2H])([2H])C#CC(=O)N1CC[C@H](N2CC(c3cc(C)c4c(c3)Nc3ncnc(N5CCS(=O)(=O)CC5)c3[C@@H](C)O4)C2)C1 (single isomer, unassigned) [compound 166] | > 10000 | 141 | –
20 | CCC#CC(=O)N1CC[C@@H](N2CC(c3cc(C)c4c(c3)Nc3ncnc(N5CCS(=O)(=O)CC5)c3[C@@H](C)O4)C2)C1 (single isomer, unassigned) [compound 167] | > 10000 | 55 | –
21 | CCC#CC(=O)N1CC[C@H](N2CC(c3cc(C)c4c(c3)Nc3ncnc(N5CCS(=O)(=O)CC5)c3[C@@H](C)O4)C2)C1 (single isomer, unassigned) [compound 168] | > 10000 | 132 | –
22 | Cc1cc(C2CN([C@H]3CCN(C(=O)C#CCN(C)C)C3)C2)cc2c1O[C@H](C)c1c(ncnc1N1CCS(=O)(=O)CC1)N2 (single isomer, unassigned) [compound 170] | 7240 | < 9.77 | –
23 | Cc1cc(C2CN([C@@H]3CCN(C(=O)C#CCN(C)C)C3)C2)cc2c1O[C@H](C)c1c(ncnc1N1CCS(=O)(=O)CC1)N2 (single isomer, unassigned) [compound 171] | 8510 | < 9.77 | –
24 | Cc1cc(C2CN([C@H]3CCN(C(=O)C#CCCN(C)C)C3)C2)cc2c1O[C@H](C)c1c(ncnc1N1CCS(=O)(=O)CC1)N2 (single isomer, unassigned) [compound 176] | 9120 | < 9.77 | –
25 | Cc1cc(C2CN([C@@H]3CCN(C(=O)C#CCCN(C)C)C3)C2)cc2c1O[C@H](C)c1c(ncnc1N1CCS(=O)(=O)CC1)N2 (single isomer, unassigned) [compound 177] | 7240 | ~12.9 | –
26 | CC#CC(=O)N1CCOC([C@H]2C[C@H](c3cc(C)c4c(c3)Nc3ncnc(N5CCS(=O)(=O)CC5)c3[C@@H](C)O4)C2)C1 (single isomer, unassigned) [compound 185] | > 10000 | ~380 | –
27 | CC#CC(=O)N1CCOC([C@H]2C[C@H](c3cc(C)c4c(c3)Nc3ncnc(N5CCS(=O)(=O)CC5)c3[C@@H](C)O4)C2)C1 (single isomer, unassigned) [compound 186] | – | 269 | CDK7_ A549 mutant hCDK7(pIC50) [1]: <5
28 | CC#CC(=O)N1CCOC([C@H]2C[C@@H](c3cc(C)c4c(c3)Nc3ncnc(N5CCS(=O)(=O)CC5)c3[C@@H](C)O4)C2)C1 (single isomer, unassigned) [compound 187] | > 10000 | 6170 | –
29 | CC#CC(=O)N1CCOC([C@H]2C[C@@H](c3cc(C)c4c(c3)Nc3ncnc(N5CCS(=O)(=O)CC5)c3[C@@H](C)O4)C2)C1 (single isomer, unassigned) [compound 188] | – | 389 | CDK7_ A549 mutant hCDK7(pIC50) [1]: <5
30 | C=CC(=O)N1CC(N2CCC(c3cc(C)c4c(c3)Nc3ncnc(N5CCOC6(COC6)C5)c3CO4)CC2)C1 [compound 68] | > 10000 | 87.1 | –
31 | C=CC(=O)N1CC(N2CCC(c3cc(C)c4c(c3)Nc3ncnc(N5CCC(S(C)(=O)=O)CC5)c3CO4)CC2)C1 [compound 70] | > 10000 | > 10000 | –
32 | C=CC(=O)N1CCC(N2CC(c3cc(C)c4c(c3)Nc3ncnc(N5CCS(=O)(=O)CC5)c3CO4)C2)C1 (stereo not drawn) [compound 112] | > 10000 | 204 | –
33 | CC#CC(=O)N1CC[C@H](N2CC(c3cc(C)c4c(c3)Nc3ncnc(N5CCS(=O)(=O)CC5)c3CO4)C2)C1 [compound 126] | > 10000 | 513 | –
34 | CC#CC(=O)N1CC[C@@H](N2CC(c3cc(C)c4c(c3)Nc3ncnc(N5CCS(=O)(=O)CC5)c3CO4)C2)C1 [compound 127] | > 10000 | 513 | –
35 | CC#CC(=O)N1CC[C@H](N2CC(c3cc(C)c4c(c3)Nc3ncnc(N5CCS(=O)(=O)CC5)c3[C@@H](C)O4)C2)C1 [compound 128] | > 10000 | – | CDK7_ A549 mutant hCDK7(pIC50) [1]: <5
36 | CC#CC(=O)N1CC[C@@H](N2CC(c3cc(C)c4c(c3)Nc3ncnc(N5CCS(=O)(=O)CC5)c3[C@@H](C)O4)C2)C1 [compound 130] | > 10000 | – | –

From US20240109912A1, “TRICYCLIC PYRIMIDINES AS CYCLIN-DEPENDENT KINASE 7 (CDK7) INHIBITORS” (JANSSEN PHARMACEUTICA NV, priority 2020, published 2024)
